Experiments:
[1] = system: NCIH929 cells; assay: NCI-H929 viability assay (CellTiter-Glo); conditions: 96 hours
Description: NCIH929 cell viability was determined based on quantification of ATP using CellTiter-Glo®2.0 luminescent Assay kit, which signals the presence of metabolically-active cells. Briefly, test compound was added to 384-well plates at a top concentration of 1 μM with 10 points, half log titration in duplicates. NCIH929 cells were seeded into the 384-well plates in RPMI medium containing 10% FBS and 0.05 mM 2-mercaptoethanol at a cell density of 750 cells per well. Cells treated in the absence of the test compound were the negative control and cells treated in the absence of CellTiter-Glo® 2.0 were the positive control. Cells treated with the test compounds were incubated at 37° C. with 5% CO2 for 96 hr. CellTiter-Glo reagent was then added to the cells and Luminescence was acquired on EnVision™ Multilabel Reader (PerkinElmer, Santa Clara, Calif., USA). % Viability was determined by normalizing the signal with positive and DMSO treated negative controls on the same microtiter plate. […] Curve fit and IC502 determination was performed by 4 parametric regression analysis.

[2] = system: SR; assay: Anti-proliferative activity, 96 hours; conditions: Homo sapiens
[3] = system: RPMI-8226 tumors; assay: RPMI-8226 xenograft, crossover from pomalidomide to Compound 1; assay type: in vivo, mice; conditions: 3000 μg/kg/day for 17 days
Description: Vehicle treated animals were treated for 28 days until tumors reached a MTV of 2211 mm^3. […] Data are expressed as MTV±SEM.
Tumor growth was monitored throughout the study. […] Measurements were twice weekly. The health of the mice was monitored, and noteworthy clinical observations were recorded. Acceptable toxicity was defined as a group's mean BW loss of less than 20% during the study and not more than one treatment related death among ten treated animals, or 10%.
Animals were weighed on a twice weekly schedule.

[4] = system: RPMI 8226; assay: Anti-proliferative activity, 96 hours; conditions: Homo sapiens, RPMI-8226, 96 h
[5] = system: Farage; assay: Anti-proliferative activity, 96 hours
[6] = system: Maver-1; assay: Anti-proliferative activity, 96 hours; conditions: Homo sapiens, Maver1, 96 h
[7] = system: RL; assay: Anti-proliferative activity, 96 hours; conditions: Homo sapiens
[8] = system: HuT 102; assay: Anti-proliferative activity, 96 hours; conditions: HuT-102, 96 h
[9] = system: Jeko-1; assay: Anti-proliferative activity, 96 hours; conditions: Homo sapiens, JeKo-1, 96 h
[10] = system: SU-DHL-2; assay: Anti-proliferative activity, 96 hours; conditions: Homo sapiens, SU-DHL-2, 96 h
[11] = system: KIJK; assay: Anti-proliferative activity, 96 hours
[12] = system: TMD8 DLBCL tumors; assay: TMD8 DLBCL xenograft, NOD SCID mice; assay type: in vivo; conditions: Compound 1 100 μg/kg; pomalidomide 3000 μg/kg; 18 days
Description: A xenograft study was also conducted in female NOD SCID mice bearing TMD8 DLBCL tumors.
(§1) Statistical analysis was performed using two-way analysis of variance (ANOVA). Data are expressed as MTV±SEM.

[13] = system: TMD8; assay: Anti-proliferative activity, 96 hours; conditions: Homo sapiens, TMD8, 96 h
[14] = system: MM.1R; assay: Anti-proliferative activity, 96 hours
[15] = system: Pfeiffer; assay: Anti-proliferative activity, 96 hours; conditions: Homo sapiens
[16] = system: SU-DHL-1; assay: Anti-proliferative activity, 96 hours; conditions: Homo sapiens, SU-DHL-1, 96 h
[17] = system: OPM-2; assay: Anti-proliferative activity, 96 hours; conditions: Homo sapiens, OPM-2, 96 h
[18] = system: Mino; assay: Anti-proliferative activity, 96 hours; conditions: Homo sapiens
[19] = system: HH; assay: Anti-proliferative activity, 96 hours; conditions: Homo sapiens
[20] = system: KMS-26; assay: Anti-proliferative activity, 96 hours; conditions: KMS-26, 96 h
[21] = system: IMiD-resistant NCIH929 cells; assay: Growth of IMiD-resistant NCIH929 cells (CellTiter-Glo); conditions: at concentrations up to 10 μM
Description: Briefly, test compound was added to 384-well plates at a top concentration of 10 μM with 14 points, half log titration in duplicates. NCIH929 cells were seeded into the 384-well plates in RPMI medium containing 10% FBS and 0.05 mM 2-mercaptoethanol at a cell density of 750 cells per well. Cells treated in the absence of the test compound were the negative control and cells treated in the absence of CellTiter-Glo® 2.0 were the positive control. Cells treated with the test compounds were incubated at 37° C. with 5% CO2 for 96 hr. CellTiter-Glo reagent was then added to the cells and luminescence was acquired on EnVision™ Multilabel Reader (PerkinElmer, Santa Clara, Calif., USA). % Viability was determined by normalizing the signal with positive and DMSO treated negative controls on the same microtiter plate.

[22] = system: KARPASS422; assay: Anti-proliferative activity, 96 hours
[23] = system: DL40; assay: Anti-proliferative activity, 96 hours
[24] = system: KMM-1; assay: Anti-proliferative activity, 96 hours; conditions: KMM-1, 96 h
[25] = system: SU-DHL-5; assay: Anti-proliferative activity, 96 hours; conditions: Homo sapiens, SU-DHL-5, 96 h
[26] = biological target: IKZF1 (Homo sapiens, UniProt Q13422+Q96SW2)
Sequence of IKZF1 (Q13422 whole entry): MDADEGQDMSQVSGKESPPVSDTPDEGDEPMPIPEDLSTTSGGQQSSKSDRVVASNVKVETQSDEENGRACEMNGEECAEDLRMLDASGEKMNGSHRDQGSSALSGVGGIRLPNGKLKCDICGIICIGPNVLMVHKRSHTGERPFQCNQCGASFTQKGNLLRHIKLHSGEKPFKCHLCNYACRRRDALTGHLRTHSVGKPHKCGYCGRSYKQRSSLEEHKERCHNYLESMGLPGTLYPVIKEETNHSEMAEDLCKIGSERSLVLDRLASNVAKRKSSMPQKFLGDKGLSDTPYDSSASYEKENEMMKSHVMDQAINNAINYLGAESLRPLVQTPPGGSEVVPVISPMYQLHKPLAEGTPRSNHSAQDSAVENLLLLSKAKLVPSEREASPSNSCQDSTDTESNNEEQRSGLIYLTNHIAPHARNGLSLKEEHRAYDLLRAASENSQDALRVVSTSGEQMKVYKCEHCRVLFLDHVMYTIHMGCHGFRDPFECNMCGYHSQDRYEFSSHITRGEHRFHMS
Sequence of IKZF1 (Q96SW2 whole entry): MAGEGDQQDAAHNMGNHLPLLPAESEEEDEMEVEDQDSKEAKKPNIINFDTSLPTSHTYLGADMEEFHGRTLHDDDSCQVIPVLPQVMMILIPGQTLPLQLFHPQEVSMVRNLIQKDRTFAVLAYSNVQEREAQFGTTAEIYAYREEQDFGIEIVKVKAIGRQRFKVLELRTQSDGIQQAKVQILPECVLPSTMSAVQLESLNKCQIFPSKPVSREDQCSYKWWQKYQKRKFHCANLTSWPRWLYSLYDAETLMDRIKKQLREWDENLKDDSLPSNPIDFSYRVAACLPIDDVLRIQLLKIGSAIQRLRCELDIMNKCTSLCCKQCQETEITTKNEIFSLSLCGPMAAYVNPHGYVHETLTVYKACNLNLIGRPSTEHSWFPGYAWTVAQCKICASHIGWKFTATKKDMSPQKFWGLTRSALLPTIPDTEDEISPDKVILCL
Sequence of IKZF1 (Q16531 2-1140 partner limits assumed): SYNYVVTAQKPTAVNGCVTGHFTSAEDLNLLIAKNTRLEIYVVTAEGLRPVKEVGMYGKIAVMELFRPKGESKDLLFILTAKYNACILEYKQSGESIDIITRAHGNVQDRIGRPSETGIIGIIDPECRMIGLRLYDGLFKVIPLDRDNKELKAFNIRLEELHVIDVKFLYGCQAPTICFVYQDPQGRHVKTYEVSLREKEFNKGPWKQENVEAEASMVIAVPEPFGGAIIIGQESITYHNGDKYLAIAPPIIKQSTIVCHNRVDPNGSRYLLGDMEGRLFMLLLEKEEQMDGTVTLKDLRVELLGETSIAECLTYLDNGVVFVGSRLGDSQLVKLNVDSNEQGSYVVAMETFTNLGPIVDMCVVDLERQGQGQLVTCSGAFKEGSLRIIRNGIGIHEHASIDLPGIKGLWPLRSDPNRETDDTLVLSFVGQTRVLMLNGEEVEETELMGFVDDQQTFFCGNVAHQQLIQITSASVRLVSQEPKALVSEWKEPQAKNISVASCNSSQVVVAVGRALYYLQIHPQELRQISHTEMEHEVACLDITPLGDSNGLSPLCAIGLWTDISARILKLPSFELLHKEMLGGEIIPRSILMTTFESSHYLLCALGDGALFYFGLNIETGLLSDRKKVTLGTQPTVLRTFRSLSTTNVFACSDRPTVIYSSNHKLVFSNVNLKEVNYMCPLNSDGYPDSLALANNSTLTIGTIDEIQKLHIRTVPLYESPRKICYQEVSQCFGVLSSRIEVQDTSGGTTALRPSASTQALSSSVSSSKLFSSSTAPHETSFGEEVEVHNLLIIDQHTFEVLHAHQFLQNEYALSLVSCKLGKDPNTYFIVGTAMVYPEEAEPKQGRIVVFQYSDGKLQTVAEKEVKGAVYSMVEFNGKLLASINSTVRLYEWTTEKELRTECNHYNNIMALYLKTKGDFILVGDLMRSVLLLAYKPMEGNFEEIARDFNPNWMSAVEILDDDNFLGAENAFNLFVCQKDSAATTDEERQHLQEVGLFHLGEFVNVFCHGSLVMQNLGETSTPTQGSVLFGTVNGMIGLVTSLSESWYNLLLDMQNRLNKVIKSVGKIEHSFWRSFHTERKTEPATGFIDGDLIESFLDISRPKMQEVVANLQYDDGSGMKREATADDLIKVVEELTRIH
Description: Endogenous expression of IKZF1 in NCIH929 cells was determined by addition of N-terminal HiBiT tag to the NCIH929 cell line using CRISPR-Cas9. Briefly, test compound was added to 384-well plates at a top concentration of 1 μM with 10 points, half log titration in duplicates. NCIH929 cells expressing HiBiT-tagged IKZF1 were seeded into the 384-well plates in RPMI medium containing 10% FBS and 0.05 mM 2-mercaptoethanol at a cell density of 15000 cells per well. Cells treated in the absence of the test compound were the negative control and wells containing media only were the positive control. Following compound treatment, cells were incubated at 37° C. with 5% CO2 for 1.5 hr. HiBiT signal was determined using Nano-Glo™ HiBiT Lytic Assay System (Promega, N3050) and luminescence was acquired on EnVision™ Multilabel Reader (PerkinElmer, Santa Clara, Calif., USA). % IKZF1 remaining was determined by normalizing the signal with positive and negative controls on the same microtiter plate. […] Curve fit and IC50 determination was performed by 4 parametric regression analysis.
NCIH929 cells expressing HiBiT-tagged IKZF1 were seeded into the 384-well plates in RPMI medium containing 10% FBS and 0.05 mM 2-mercaptoethanol at a cell density of 15000 cells per well. Cells treated in the absence of the test compound were the negative control and wells containing media only were the positive control. Following compound treatment, cells were incubated at 37° C. with 5% CO2 for 1 or 2 hr. HiBiT signal was determined using Nano-Glo™ HiBiT Lytic Assay System (Promega, N3050) and luminescence was acquired on EnVision™ Multilabel Reader (PerkinElmer, Santa Clara, Calif., USA). % IKZF1 remaining was determined by normalizing the signal with positive and negative controls on the same microtiter plate. Curve fit and IC50 determination was performed by 4 parametric regression analysis.

[27] = system: OCI-LY10; assay: Anti-proliferative activity, 96 hours; conditions: Homo sapiens, OCI-Ly10, 96 h
[28] = system: LP-1; assay: Anti-proliferative activity, 96 hours; conditions: Homo sapiens, LP-1, 96 h
[29] = system: Caspase 3/7 activity in TMD8 cells; assay: Apoptosis induction, Caspase 3/7 activity in TMD8 cells; conditions: Homo sapiens, TMD8, 48 h, read-out: EC50, caspase 3/7 activity
Description: 30 μL TMD8 cells were seeded into the 384-well plates in RPMI medium containing 10% FBS at a cell density of 2000 cells per well. Cells treated in the absence of the test compound were the negative control. Following compound treatment, cells were incubated at 37° C. with 5% CO2 for 48 hr. 30 μL reconstituted Caspase 3/7 Assay detection reagent was added to each well and luminescence was acquired on EnVision™ Multilabel Reader (PerkinElmer, Santa Clara, Calif., USA).

[30] = system: DOHH-2; assay: Anti-proliferative activity, 96 hours; conditions: Homo sapiens, DOHH-2, 96 h
[31] = system: MM.1S; assay: Anti-proliferative activity, 96 hours; conditions: Homo sapiens, MM1.S
[32] = system: REC1 mantle cell lymphoma tumors; assay: REC1 mantle cell lymphoma xenograft, balb/c nude mice; assay type: in vivo; conditions: Compound 1 10, 30, or 100 μg/kg; pomalidomide 3000 μg/kg; 18 days
Description: A xenograft study was conducted in female balb/c nude mice bearing REC1 mantle cell lymphoma tumors.
as §1

[33] = system: H929; assay: Anti-proliferative activity, 96 hours; conditions: Homo sapiens, NCI-H929, 96 h
[34] = system: Caspase 3/7 activity in NCIH929 multiple myeloma cells; assay: Apoptosis induction, Caspase 3/7 activity in NCIH929 cells; assay type: cell-based; conditions: Homo sapiens, NCI-H929, 72 h, read-out: EC50, caspase 3/7 activity
Description: 30 μL NCIH929 cells were seeded into the 384-well plates in RPMI medium containing 10% FBS and 0.05 mM 2-mercaptoethanol at a cell density of 1000 cells per well. Cells treated in the absence of the test compound were the negative control. Following compound treatment, cells were incubated at 37° C. with 5% CO2 for 72 hr. 30 μL reconstituted Caspase 3/7 Assay detection reagent was added to each well and luminescence was acquired on EnVision™ Multilabel Reader (PerkinElmer, Santa Clara, Calif., USA).

[35] = system: Rec-1; assay: Anti-proliferative activity, 96 hours; conditions: Homo sapiens, Rec1, 96 h
[36] = system: NCI-H929 multiple myeloma tumors; assay: NCI-H929 multiple myeloma xenograft, NOD SCID mice (Example 13); assay type: in vivo; conditions: 3000 μg/kg PO QD
Description: Compound 1 efficacy in two multiple myeloma cell lines (NC-H929) and (RPMI-8226) was evaluated at four different doses: 3 μg/kg, 10 μg/kg, 30 μg/kg, and 100 μg/kg. Compound 1 was administered QD (every day) orally (PO). […]
For the NCI-H929 cells, the xenograft study was conducted in female NOD SCID mice bearing NCI-H929 multiple myeloma tumors.
as §1

[37] = system: WSU-DLCL2; assay: Anti-proliferative activity, 96 hours; conditions: Homo sapiens, WSUDLCL2, 96 h

Nc1cccc2c1C(=O)N(C1CCC(=O)NC1=O)C2=O (stereo not drawn) [Pomalidomide, reference compound]
Mean Emax (%) ± SD, H929 Viability ([1]; % viability): 15.6 ± 4.2% | IC50 ([1]; read-out: Mean IC50 (nM), H929 Viability): 141 nM | IC50 [2]: > 10000 nM | tumor response [3]: no response | IC50 [4]: > 10000 nM | IC50 [5]: > 10000 nM | IC50 [6]: > 10000 nM | IC50 [7]: > 10000 nM | IC50 [8]: > 10000 nM | IC50 [9]: > 10000 nM | IC50 [10]: > 10000 nM | IC50 [11]: 4330 nM | tumor volume [12]: increased | IC50 [13]: 327 nM | IC50 [14]: 193 nM | IC50 [15]: > 10000 nM | IC50 [16]: 378 nM | IC50 [17]: 93.3 nM | IC50 [18]: 426 nM | IC50 [19]: > 10000 nM | IC50 [20]: 2090 nM | growth inhibition [21]: less than 50% | IC50 [22]: 24.4 nM | IC50 [23]: > 10000 nM | IC50 [24]: 527 nM | IC50 [25]: > 10000 nM | Emax ([26]; NCI-H929, read-out: Mean Emax (%) ± SD, IKZF1 Degradation): 55.7 ± 6% | IKZF1 degradation ([26]; after 1 hour treatment): less than 25% | IC50 [27]: 47.7 nM | IC50 [28]: 576 nM | EC50 [29]: 1200 nM | IC50 [30]: 1150 nM | IC50 [31]: 71 nM | tumor volume [32]: increased | IC50 [33]: 171 nM | EC50 [34]: 407 nM | IC50 [35]: 44.8 nM | Statistical Significance Compared to Vehicle [36]: 0.718 | IC50 [37]: > 10000 nM
